Test results published in patent US20070037253A1, “Methods and compositions for treatment of arthritis and cancer” (priority 2003, published 2007).
“Also recorded” adds a separate entry of the source. Where a SMILES comes first, the peptide text is derived from it.

What was measured:
[1] = target: T1, MMP-9 (Homo sapiens, UniProt P14780); test: Gelatin zymography of human synovial fluid pre-incubated with inhibitors; format: biochemical; settings: co-incubated 1 h
T1 construct: Samples containing human synovial fluid (5 μL) and 5 or 10 μM of peptides were pre-incubated; from tissue; host or cells: human synovial fluid
T1 sequence (P14780 94-707): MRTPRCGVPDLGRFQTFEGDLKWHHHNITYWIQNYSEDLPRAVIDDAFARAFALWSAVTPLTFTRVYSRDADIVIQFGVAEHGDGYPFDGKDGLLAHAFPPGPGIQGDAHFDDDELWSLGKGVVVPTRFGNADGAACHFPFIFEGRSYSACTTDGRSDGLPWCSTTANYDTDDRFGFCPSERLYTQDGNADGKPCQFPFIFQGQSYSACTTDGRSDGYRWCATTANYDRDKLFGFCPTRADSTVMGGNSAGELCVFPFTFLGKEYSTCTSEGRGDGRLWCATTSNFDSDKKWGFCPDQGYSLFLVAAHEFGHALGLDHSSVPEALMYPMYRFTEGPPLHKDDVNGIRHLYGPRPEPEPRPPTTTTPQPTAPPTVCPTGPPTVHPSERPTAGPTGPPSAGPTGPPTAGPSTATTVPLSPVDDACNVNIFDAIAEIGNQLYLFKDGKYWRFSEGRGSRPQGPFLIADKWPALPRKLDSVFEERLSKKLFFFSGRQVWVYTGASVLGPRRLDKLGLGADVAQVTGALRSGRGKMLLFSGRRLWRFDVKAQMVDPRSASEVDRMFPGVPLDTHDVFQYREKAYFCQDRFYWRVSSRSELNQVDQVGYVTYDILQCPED
Method: (§1) (A) Samples containing human synovial fluid (5 μL) and 5 or 10 μM of peptides were pre-incubated at 37° C. for 1 h in Tris-HCl buffer prior to electrophoresis on 10% SDS-PAGE gel containing gelatin (0.1%). […] (B) The mean density (OD/mm2)±SD (n=3), representing MMP-2 activity, obtained by scanning the zymograms using the GS-710 calibrated imaging densitometer (Bio Rad, USA).
(§2) Gelatin zymography: human synovial fluid, purified human recombinant MMP-2 and -9 or APMA-activated concentrated culture supernatant samples (10 μL) was mixed (1:1) with Laemmli sample buffer, loaded on 4% acrylamide stacking gel and electrophoresed (120 V) at 4° C. on a 10% acrylamide-resolving minigel containing 0.1% gelatin. After electrophoresis for 1 h, the gels were soaked in 2.5% Triton X-100 on a shaker for 1 h, changing the solution after 30 min, to eliminate SDS. After overnight incubation in zymogen activation buffer [50 mM Tris-HCl, pH 7.5, containing 10 mM CaCl2 and 5 mM ZnCl2] at 37° C., the gels were rinsed in distilled water, and stained for 3 hr with […], after which clear bands of digested gelatin were clearly visible. The gels were briefly rinsed in distilled water and scanned by the Bio-Rad GS-710 Calibrated Imaging Densitometer.

[2] = target: T2, MMP-2 (Homo sapiens, UniProt P08253); test: as above; format: biochemical; settings: 5 or 10 μM, pre-incubated 37° C. 1 h
T2 construct: from tissue; host or cells: human synovial fluid
T2 sequence (P08253 110-660): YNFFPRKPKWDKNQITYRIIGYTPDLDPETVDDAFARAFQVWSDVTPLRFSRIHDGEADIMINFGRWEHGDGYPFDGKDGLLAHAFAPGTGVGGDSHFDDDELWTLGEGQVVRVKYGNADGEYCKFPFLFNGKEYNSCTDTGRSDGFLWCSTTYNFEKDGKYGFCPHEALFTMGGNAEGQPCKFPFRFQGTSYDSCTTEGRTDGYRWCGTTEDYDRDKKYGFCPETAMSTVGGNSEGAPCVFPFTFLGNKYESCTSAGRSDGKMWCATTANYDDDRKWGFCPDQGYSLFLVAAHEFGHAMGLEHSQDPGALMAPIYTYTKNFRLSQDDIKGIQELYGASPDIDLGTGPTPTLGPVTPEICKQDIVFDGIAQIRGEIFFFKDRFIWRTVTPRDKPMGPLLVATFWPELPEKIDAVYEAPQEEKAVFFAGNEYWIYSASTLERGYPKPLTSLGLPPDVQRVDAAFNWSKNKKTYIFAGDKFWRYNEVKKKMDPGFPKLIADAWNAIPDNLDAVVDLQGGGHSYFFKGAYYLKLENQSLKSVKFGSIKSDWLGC
Method: as §1, §2

[3] = target: T3, MMP-9 (Oryctolagus cuniculus, UniProt P41246); test: Gelatin zymography of HIG-82 culture supernatant pre-incubated with inhibitors (FIG. 4A); format: biochemical, rabbit; settings: APMA-activated HIG-82 supernatant, 5 μM peptide, 1 h at 25° C.
T3 construct: endogenous in cells; host or cells: HIG-82 rabbit synoviocytes (ATCC CRL-1832), IL-1β-induced, culture supernatant
T3 sequence (P41246 107-707): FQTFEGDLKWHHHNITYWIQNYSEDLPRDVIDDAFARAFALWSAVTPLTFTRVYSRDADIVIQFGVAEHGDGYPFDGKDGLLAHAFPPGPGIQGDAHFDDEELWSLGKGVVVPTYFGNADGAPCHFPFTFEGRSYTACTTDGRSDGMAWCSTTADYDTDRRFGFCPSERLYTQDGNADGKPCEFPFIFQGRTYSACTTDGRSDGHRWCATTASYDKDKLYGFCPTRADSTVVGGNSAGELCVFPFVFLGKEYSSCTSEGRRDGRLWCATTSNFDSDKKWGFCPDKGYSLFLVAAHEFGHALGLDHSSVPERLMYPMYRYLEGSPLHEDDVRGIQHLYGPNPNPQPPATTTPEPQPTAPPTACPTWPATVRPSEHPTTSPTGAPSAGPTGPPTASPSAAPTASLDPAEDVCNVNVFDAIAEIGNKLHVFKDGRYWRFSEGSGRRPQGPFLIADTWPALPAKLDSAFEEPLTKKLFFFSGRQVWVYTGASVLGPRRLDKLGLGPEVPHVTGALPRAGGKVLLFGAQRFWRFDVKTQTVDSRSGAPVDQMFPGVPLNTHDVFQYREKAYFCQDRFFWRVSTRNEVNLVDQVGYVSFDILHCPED
Method: (§3) Gelatinase activity in the supernatants from cells induced with IL-1β (5 ng) for 48 h was analyzed by gelatin zymography. (A) Supernatants (activated with final 1 mM APMA at 30° C. for 30 min) were pre-incubated with various inhibitors. (5 μM peptides or 1-2 μM Calbiochem MMP inhibitor II) for 1 h at 25° C. prior to zymographic analyses—Lane 1, without activation (no inhibitor); Lane 2, with activation (no inhibitor); Lanes 3-8, with activation plus inhibitor: 3, P-NT-II; 4, PIP [59-67] monomer; 5, PIP [57-67] dimer; 6, PIP [59-67] dimer; 7 and 8, positive control MMP Inhibitor II (Calbiochem) at 1 and 2 μM concentrations. (B) Rabbit synovial fibroblasts were stimulated by IL-1β in the presence or absence of 1-10 μM of PIP [59-67] dimer for 48 h. Culture supernatants were concentrated by centrifugation (Centricon centrifugal filter devices, M.W. cutoff 30,000) and activated with APMA (1 mM final) before measurement of gelatinase activity by gelatin zymography. Lanes: 1 (−peptide−APMA); 2 (−peptide+APMA); 3 (+1 μM peptide+APMA); 4 (+5 μM peptide+APMA); 5 (+7.5 μM peptide+APMA); 6 (+10 μM peptide+APMA). […]

[4] = target: T4, MMP-2 (Oryctolagus cuniculus, UniProt P50757); test: as above; format: biochemical, rabbit; settings: APMA-activated HIG-82 supernatant, 5 μM peptide, 1 h at 25° C.
T4 construct: endogenous in cells; host or cells: HIG-82 rabbit synoviocytes (ATCC CRL-1832), IL-1β-induced, culture supernatant
T4 sequence (P50757 110-662): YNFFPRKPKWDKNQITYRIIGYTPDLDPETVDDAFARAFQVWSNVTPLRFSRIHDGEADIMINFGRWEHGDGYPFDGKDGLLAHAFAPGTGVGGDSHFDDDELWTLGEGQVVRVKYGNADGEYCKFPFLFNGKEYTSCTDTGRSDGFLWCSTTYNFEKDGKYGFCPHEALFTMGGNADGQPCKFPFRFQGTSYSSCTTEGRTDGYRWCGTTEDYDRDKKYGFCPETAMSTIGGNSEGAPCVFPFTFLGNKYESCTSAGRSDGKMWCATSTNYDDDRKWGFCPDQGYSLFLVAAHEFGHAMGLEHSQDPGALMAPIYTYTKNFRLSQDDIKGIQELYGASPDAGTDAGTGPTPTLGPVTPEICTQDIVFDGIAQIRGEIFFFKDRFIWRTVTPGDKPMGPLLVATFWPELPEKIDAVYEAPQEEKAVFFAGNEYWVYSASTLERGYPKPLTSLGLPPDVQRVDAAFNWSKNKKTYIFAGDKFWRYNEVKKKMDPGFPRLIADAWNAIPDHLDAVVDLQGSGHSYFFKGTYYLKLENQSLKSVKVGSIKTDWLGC
Method: as §3

## CC[C@H](C)[C@H](NC(=O)[C@H](CC(=O)O)NC(=O)[C@@H](N)C(C)C)C(=O)N[C@@H](Cc1c[nH]cn1)C(=O)N[C@H](C(=O)N[C@@H](Cc1c[nH]c2ccccc12)C(=O)N[C@@H](CC(=O)O)C(=O)NCC(=O)N[C@H](C(=O)N[C@H](C(=O)N[C@@H](CC(=O)O)C(=O)N[C@H](C(=O)N[C@@H](Cc1c[nH]cn1)C(=O)N[C@H](C(=O)N[C@@H](Cc1c[nH]c2ccccc12)C(=O)N[C@@H](CC(=O)O)C(=O)NCC(=O)N[C@H](C(=O)O)C(C)C)C(C)C)[C@@H](C)CC)C(C)C)C(C)C)C(C)C [PIP [59-67] dimer] (H-VDIHVWDGVVDIHVWDGV-OH; N-terminus and C-terminus assumed)
[1]
  MMP-9 gelatinase activity vs control: insignificant
[2]
  MMP-2 gelatinase activity (zymogram densitometry) vs control: did not show any significant difference from the control; also recorded: insignificant
[3]
  MMP-9 gelatinase activity vs control: insignificant
[4]
  MMP-2 gelatinase activity vs control: insignificant
